Laboratory results reported in patent US11851440B2, “Modulators of eukaryotic initiation factor 2B, compositions and methods” (Denali Therapeutics Inc., priority 2017, dated 2023).

tested on: ISR pathway (ATF4 translation); assay: ATF4 Nano Luciferase reporter integrated stress response (ISR) assay in H4 ATF4-NLuc cells; details: Homo sapiens, read-out: Activity (IC50), H4 ATF4-NLuc (clone 17) cells; compound 30 minutes, then 50 um sodium arsenite for 6 hours; luminescence readout

**Q.** With `O=C(NC12CC(c3nnc([C@H]4C[C@@H](OC(F)(F)F)C4)o3)(C1)C2)C1=NO[C@H](c2ccccc2)C1` [Example 100, cis-(S)-5-phenyl-N-(3-(5-(3-(trifluoromethoxy)cyclobutyl)-1,3,4-oxadiazol-2-yl)bicyclo[1.1.1]pentan-1-yl)-4,5-dihydroisoxazole-3-carboxamide] as the compound, how does the IC50 read?
**A.** Its IC50 is under 1000 nM.

**Q.** `O=C(NC12CC(c3nnc([C@H]4C[C@@H](OC(F)(F)F)C4)o3)(C1)C2)c1cc2cccn2cn1` [Example 101, N-[3-[5-[3-cis-(trifluoromethoxy)cyclobutyl]-1,3,4-oxadiazol-2-yl]-1-bicyclo[1.1.1]pentanyl]pyrrolo[1,2-c]pyrimidine-3-carboxamide] was tested. Which IC50 did it give?
**A.** The IC50 was 1000 to 10000 nM.

**Q.** `O=C(NC12CC(c3nnc([C@H]4C[C@@H](OC(F)(F)F)C4)o3)(C1)C2)c1cn2cc(Cl)ccc2n1` [Example 103, 6-chloro-N-[3-[5-[3-cis-(trifluoromethoxy)cyclobutyl]-1,3,4-oxadiazol-2-yl]-1-bicyclo[1.1.1]pentanyl]imidazo[1,2-a]pyridine-2-carboxamide] was tested. Which IC50 did it give?
**A.** Its IC50 is under 1000 nM.

**Q.** For `O=C(NC12CC(c3nnc([C@H]4C[C@@H](OC(F)(F)F)C4)o3)(C1)C2)c1cn2ccc(Cl)cc2n1` [Example 104, 7-chloro-N-[3-[5-[3-cis-(trifluoromethoxy)cyclobutyl]-1,3,4-oxadiazol-2-yl]-1-bicyclo[1.1.1]pentanyl]imidazo[1,2-a]pyridine-2-carboxamide], which IC50 is on record?
**A.** Its IC50 is under 1000 nM.

**Q.** `O=C(COc1cccc(F)c1)NC12CC(c3nnc([C@H]4C[C@@H](OC(F)(F)F)C4)o3)(C1)C2` [Example 105, 2-(3-fluorophenoxy)-N-[3-[5-[3-cis-(trifluoromethoxy)cyclobutyl]-1,3,4-oxadiazol-2-yl]-1-bicyclo[1.1.1]pentanyl]acetamide] was tested. Which IC50 did it give?
**A.** Its IC50 is under 1000 nM.

**Q.** Which IC50 does the source give for `O=C(CO[C@H]1C[C@@H](OC(F)(F)F)C1)NC12CC(c3nnc([C@H]4C[C@@H](COC(F)(F)F)C4)o3)(C1)C2` [Example 106, 2-[3-cis-(trifluoromethoxy)cyclobutoxy]-N-[3-[5-[3-cis-(trifluoromethoxymethyl)cyclobutyl]-1,3,4-oxadiazol-2-yl]-1-bicyclo[1.1.1]pentanyl]acetamide] here?
**A.** The IC50 was under 1000 nM.

**Q.** For `O=C(CO[C@H]1C[C@@H](OC(F)(F)F)C1)NC12CC(c3nnc(C4CC(COC(F)(F)F)C4)o3)(C1)C2` (stereo partly drawn) [Example 107, 2-[3-cis-(trifluoromethoxy)cyclobutoxy]-N-[3-[5-[3-trans-(trifluoromethoxymethyl)cyclobutyl]-1,3,4-oxadiazol-2-yl]-1-bicyclo[1.1.1]pentanyl]acetamide], which IC50 is on record?
**A.** Its IC50 is under 1000 nM.

**Q.** `O=C(NC12CC(c3nnc([C@H]4C[C@@H](OC(F)(F)F)C4)o3)(C1)C2)OCc1ccc(Cl)cc1` [Example 110, (4-chlorophenyl)methyl-N-[3-[5-[3-cis-(trifluoromethoxy)cyclobutyl]-1,3,4-oxadiazol-2-yl]-1-bicyclo[1.1.1]pentanyl]carbamate] was tested. Which IC50 did it give?
**A.** The IC50 was under 1000 nM.

**Q.** With `O=C(NC12CC(c3nnc([C@H]4C[C@H](OC(F)(F)F)C4)o3)(C1)C2)OCc1ccc(Cl)cc1` [Example 111, (4-chlorophenyl)methyl-N-[3-[5-[3-trans-(trifluoromethoxy)cyclobutyl]-1,3,4-oxadiazol-2-yl]-1-bicyclo[1.1.1]pentanyl]carbamate] as the compound, how does the IC50 read?
**A.** Its IC50 is under 1000 nM.

**Q.** How did the IC50 turn out when `O=C(CO[C@@H]1CC[C@H](OC(F)(F)F)C1)NC12CC(c3nnc([C@H]4C[C@@H](OC(F)(F)F)C4)o3)(C1)C2` [Example 114, N-[3-[5-[3-cis-(trifluoromethoxy)cyclobutyl]-1,3,4-oxadiazol-2-yl]-1-bicyclo[1.1.1]pentanyl]-2-[3-cis-(trifluoromethoxy)cyclopentoxy]acetamide] was run?
**A.** Its IC50 is 1000 to 10000 nM.

**Q.** How did the IC50 turn out when `O=C(COC1CC2(CC2)C1)NC12CC(c3nnc([C@H]4C[C@@H](OC(F)(F)F)C4)o3)(C1)C2` [Example 115, 2-spiro[2.3]hexan-5-yloxy-N-[3-[5-[3-cis-(trifluoromethoxy)cyclobutyl]-1,3,4-oxadiazol-2-yl]-1-bicyclo[1.1.1]pentanyl]acetamide] was run?
**A.** Its IC50 is 1000 to 10000 nM.

**Q.** `O=C(COC1CN(CC(F)(F)F)C1)NC12CC(c3nnc([C@H]4C[C@@H](OC(F)(F)F)C4)o3)(C1)C2` [Example 116, 2-[1-(2,2,2-trifluoroethyl)azetidin-3-yl]oxy-N-[3-[5-[3-cis-(trifluoromethoxy)cyclobutyl]-1,3,4-oxadiazol-2-yl]-1-bicyclo[1.1.1]pentanyl]acetamide] was tested. Which IC50 did it give?
**A.** Its IC50 is 1000 to 10000 nM.

**Q.** For `O=C(COC[C@H]1C[C@@H](OC(F)(F)F)C1)NC12CC(c3nnc([C@H]4C[C@@H](OC(F)(F)F)C4)o3)(C1)C2` [Example 117, 2-[[3-cis-(trifluoromethoxy)cyclobutyl]methoxy]-N-[3-[5-[3-cis-(trifluoromethoxy)cyclobutyl]-1,3,4-oxadiazol-2-yl]-1-bicyclo[1.1.1]pentanyl]acetamide], which IC50 is on record?
**A.** Its IC50 is 1000 to 10000 nM.

**Q.** For `O=C(COC1CC(OC(F)(F)F)C1)NC12CC(c3nnc(-c4cnn(CC(F)(F)F)c4)o3)(C1)C2` (stereo not drawn) [Example 118, N-[3-[5-[1-(2,2,2-trifluoroethyl)pyrazol-4-yl]-1,3,4-oxadiazol-2-yl]-1-bicyclo[1.1.1]pentanyl]-2-[3-cis-(trifluoromethoxy)cyclobutoxy]acetamide], which IC50 is on record?
**A.** Its IC50 is 1000 to 10000 nM.

**Q.** With `O=C(CO[C@H]1C[C@@H](OC(F)(F)F)C1)NC12CC(c3nnc(-c4ccn(CC(F)(F)F)n4)o3)(C1)C2` [Example 119, N-[3-[5-[1-(2,2,2-trifluoroethyl)pyrazol-3-yl]-1,3,4-oxadiazol-2-yl]-1-bicyclo[1.1.1]pentanyl]-2-[3-cis-(trifluoromethoxy)cyclobutoxy]acetamide] as the compound, how does the IC50 read?
**A.** The IC50 was 1000 to 10000 nM.

**Q.** For `O=C(COc1ccc(C2CC2)cc1)NC12CC(c3nnc([C@H]4C[C@@H](OC(F)(F)F)C4)o3)(C1)C2` [Example 120, 2-(4-cyclopropylphenoxy)-N-[3-[5-[3-cis-(trifluoromethoxy)cyclobutyl]-1,3,4-oxadiazol-2-yl]-1-bicyclo[1.1.1]pentanyl]acetamide], which IC50 is on record?
**A.** Its IC50 is under 1000 nM.

**Q.** `CC1C(c2nnc(C34CC(NC(=O)COc5ccc(Cl)c(F)c5)(C3)C4)o2)CN1CC(F)(F)F` (stereo not shown) [Example 121, 2-(4-chloro-3-fluoro-phenoxy)-N-[3-[5-[2-methyl-1-(2,2,2-trifluoroethyl)azetidin-3-yl]-1,3,4-oxadiazol-2-yl]-1-bicyclo[1.1.1]pentanyl]acetamide] was tested. Which IC50 did it give?
**A.** Its IC50 is under 1000 nM.

**Q.** Which IC50 does the source give for `CC1C(c2nnc(C34CC(NC(=O)COc5ccc(Cl)c(F)c5)(C3)C4)o2)CN1C(=O)OC(C)(C)C` (stereo not shown) [Example 122, tert-butyl 3-[5-[3-[[2-(4-chloro-3-fluoro-phenoxy)acetyl]amino]-1-bicyclo[1.1.1]pentanyl]-1,3,4-oxadiazol-2-yl]-2-methyl-azetidine-1-carboxylate] here?
**A.** Its IC50 is under 1000 nM.

**Q.** How did the IC50 turn out when `CC(N1CC(c2nnc(C34CC(NC(=O)COc5ccc(Cl)c(F)c5)(C3)C4)o2)C1)C(F)(F)F` (stereo not shown) [Example 123, 2-(4-chloro-3-fluoro-phenoxy)-N-[3-[5-[1-(2,2,2-trifluoro-1-methyl-ethyl)azetidin-3-yl]-1,3,4-oxadiazol-2-yl]-1-bicyclo[1.1.1]pentanyl]acetamide] was run?
**A.** The IC50 was under 1000 nM.

**Q.** Which IC50 does the source give for `O=C(COc1ccc(Cl)c(F)c1)NC12CC(c3nnc([C@@H]4CC[C@H](COC(F)(F)F)O4)o3)(C1)C2` [Example 124, 2-(4-chloro-3-fluoro-phenoxy)-N-[3-[5-[5-cis-(trifluoromethoxymethyl)tetrahydrofuran-2-yl]-1,3,4-oxadiazol-2-yl]-1-bicyclo[1.1.1]pentanyl]acetamide] here?
**A.** The IC50 was under 1000 nM.

**Q.** Which IC50 does the source give for `O=C(COc1ccc(Cl)c(F)c1)NC12CC(c3nnc(CN4CCC(F)(F)C4)o3)(C1)C2` [Example 125, 2-(4-chloro-3-fluoro-phenoxy)-N-[3-[5-[(3,3-difluoropyrrolidin-1-yl)methyl]-1,3,4-oxadiazol-2-yl]-1-bicyclo[1.1.1]pentanyl]acetamide] here?
**A.** The IC50 was under 1000 nM.

**Q.** How did the IC50 turn out when `O=C(COc1ccc(Cl)c(F)c1)NC12CC(c3nnc(CN4CC(C(F)(F)F)C4)o3)(C1)C2` [Example 126, 2-(4-chloro-3-fluoro-phenoxy)-N-[3-[5-[[3-(trifluoromethyl)azetidin-1-yl]methyl]-1,3,4-oxadiazol-2-yl]-1-bicyclo[1.1.1]pentanyl]acetamide] was run?
**A.** Its IC50 is under 1000 nM.

**Q.** Which IC50 does the source give for `O=C(COc1ccc(Cl)c(F)c1)NC12CC(c3nnc(C4CN(CC(F)(F)F)CCO4)o3)(C1)C2` (stereo not shown) [Example 127, 2-(4-chloro-3-fluoro-phenoxy)-N-[3-[5-[4-(2,2,2-trifluoroethyl)morpholin-2-yl]-1,3,4-oxadiazol-2-yl]-1-bicyclo[1.1.1]pentanyl]acetamide] here?
**A.** Its IC50 is under 1000 nM.

**Q.** `CC(C)(C)OC(=O)N1CCOC(c2nnc(C34CC(NC(=O)COc5ccc(Cl)c(F)c5)(C3)C4)o2)C1` (stereo not shown) [Example 128, tert-butyl 2-[5-[3-[[2-(4-chloro-3-fluoro-phenoxy)acetyl]amino]-1-bicyclo[1.1.1]pentanyl]-1,3,4-oxadiazol-2-yl]morpholine-4-carboxylate] was tested. Which IC50 did it give?
**A.** The IC50 was 1000 to 10000 nM.

**Q.** With `O=C(COc1ccc(Cl)c(F)c1)NC12CC(c3nnc(CN4CC(F)(F)C4)o3)(C1)C2` [Example 129, 2-(4-chloro-3-fluoro-phenoxy)-N-[3-[5-[(3,3-difluoroazetidin-1-yl)methyl]-1,3,4-oxadiazol-2-yl]-1-bicyclo[1.1.1]pentanyl]acetamide] as the compound, how does the IC50 read?
**A.** The IC50 was 1000 to 10000 nM.

**Q.** `O=C(COc1ccc(Cl)c(F)c1)NC12CC(c3nnc(C4CN(CC(F)F)C4)o3)(C1)C2` [Example 130, 2-(4-chloro-3-fluoro-phenoxy)-N-[3-[5-[1-(2,2-difluoroethyl)azetidin-3-yl]-1,3,4-oxadiazol-2-yl]-1-bicyclo[1.1.1]pentanyl]acetamide] was tested. Which IC50 did it give?
**A.** The IC50 was under 1000 nM.

**Q.** With `CC(C)(c1nnc(C23CC(NC(=O)COc4ccc(Cl)c(F)c4)(C2)C3)o1)C(F)F` [Example 131, 2-(4-chloro-3-fluoro-phenoxy)-N-[3-[5-(2,2-difluoro-1,1-dimethyl-ethyl)-1,3,4-oxadiazol-2-yl]-1-bicyclo[1.1.1]pentanyl]acetamide] as the compound, how does the IC50 read?
**A.** The IC50 was over 10000 nM.

**Q.** How did the IC50 turn out when `CN(CCO[C@H]1C[C@@H](OC(F)(F)F)C1)C12CC(NC(=O)COc3ccc(Cl)c(F)c3)(C1)C2` [Example 132, 2-(4-chloro-3-fluoro-phenoxy)-N-[3-[methyl-[2-[3-cis-(trifluoromethoxy)cyclobutoxy]ethyl]amino]-1-bicyclo[1.1.1]pentanyl]acetamide] was run?
**A.** The IC50 was under 1000 nM.
